Entries after “also recorded” stand apart in the source; their conditions may differ.
Test system: ASIC3-expressing muscle nociceptors
Assay: Whole-cell patch clamp of acid-induced current in ASIC3-expressing muscle nociceptors
Assay type: cell-based, mice
Conditions: T1-11 10 nM; n=9
Procedure: To retrograde-trace muscle-afferent DRG neurons, mice were injected with 4% Fluorogold (Fluorochrome, Denver, Colo.) into the GM of both legs for 5 to 7 days, then lumbar DRG neurons were dissected and removed from both sides and placed in a tube for digestion with 1 ml DMEM containing 0.125% type 1 collagenase for 90 min and 0.25% trypsin for 20 min at 37° C. The digested DRG neurons were washed with fetal calf serum (FCS)-free DMEM or DMEM containing 10% FCS during each treatment. Fully digested DRGs were triturated and plated on poly-L-lysine-coated cover slides. Cell cultures were maintained in a 5% CO2 incubator at 37° C.
Whole-cell patch-clamp recordings of muscle-afferent neurons involved use of Axopatch MultiClamp 700B (Axon Instruments). Neurons with membrane potential >−40 mV were discarded. […]
Voltage-clamp mode was used to examine the effect of SP on acid-induced currents in ASIC3-expressing DRG neurons. A total of 40 GM and 6 non-GM DRG neurons were recorded in voltage-clamp mode with Vm held at −70 mV. […] To validate whether the modulation of SP on acid-induced current was NK1-receptor specific, acid-induced current was first recorded in a bath containing 10 μM RP67580 for 2 min as a control response. […] Acid-induced current was recorded in a bath containing both SP and genistein (30 μM; Tocris), or both SP and daidzein (30 μM; Tocris) for 3 min. […]

OC[C@H]1O[C@@H](n2cnc3c(NCc4ccc(O)cc4)ncnc32)[C@H](O)[C@@H]1O [T1-11, N^6-(4-hydroxybenzyl)adenosine]
acid-induced current in ASIC3-expressing muscle nociceptors: is enough to inhibit acid-induced current; also recorded: inhibited acid-induced current in all ASIC3-expressing muscle nociceptors

— patent US10117890B2, “Methods and compositions for treating pain” (Academia Sinica, priority 2012, dated 2018)
